In patent publication EP0103895A2, “Novel hydroxylamine derivatives, production and use thereof” (MEIJI SEIKA KABUSHIKI KAISHA, priority 1982, dated 1984):
“And” between values parts separate entries of the source, which are not always exact repeats. Identical values can stand only once. Like-named read-outs stand apart in the source and are kept apart here.

Columns and labels:
[1] = system: fowl roundworm (As. galli); test: Anthelmintic test in chickens artificially infected with fowl roundworm, compound added to feed, E.P.G. and worm count up to 21st day (Test Examples A2, B2, C2, D2); format: in vivo, Ascaridia galli; conditions: chicken; for inhibition in vivo at 25 ppm / inhibition in vivo at 50 ppm: Ascaridia galli, feed or water, 504 h, read-out: Anthelmintic effect
[2] = system: swine roundworm (Ascaris suum); test: Test of anthelmintic effect in naturally infected pigs, E.P.G. on 7th day: swine roundworm (Test Examples A9, B9, C9, D9); format: in vivo; conditions: for Change of E.P.G. 7th day: one administration; for anthelmintic effect: pigs infected with swine roundworm and swine whipworm (statement covers both), one administration of 30 mg/Kg
Procedure: (§1) Six pigs infected with swine roundworm and swine whipworm (naturally infected pigs) were employed in groups each of two pigs.
(§2) As a control, only gelatin capsules were administered orally to the two pigs.
(§3) Before administration and on the 7th day after. administration, fecal matter testing was conducted to calculate the E.P.G., and the anthelmintic effect was judged by the changing of the E.P.G. to negative'.
(§4) 50 mg of each compound was placed in a gelatin capsule per 1 Kg of body weight and administered orally to each of the two pigs. As control, only gelatin capsules were administered orally to two pigs.
(§5) 30 mg of each compound was placed in a gelatin capsule per 1 Kg of body weight and administered orally to each of the two pigs. As control, only gelatin capsules were administered orally to two pigs.

[3] = system: fowl roundworm (Ascaridia galli); test: Anthelmintic test in chickens artificially infected with fowl roundworm, single oral dose in gelatin capsule, worm bodies counted within 48 hours (Test Examples A1, B1, C1, D1); format: in vivo; conditions: Ascaridia galli, po, 48 h, chicken, chickens No.1-3, read-out: Anthelmintic effect after 48 hours; for inhibition in vivo at 30 mg/kg: 30 mg/Kg oral in gelatin capsule; for inhibition in vivo at 50 mg/kg: 50 mg/Kg oral in gelatin capsule; for inhibition in vivo at 15 mg/kg: 15 mg/Kg oral in gelatin capsule
In short: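 Anthelmintic percentage derived from counts of worms passed within 48 h plus worms left in the intestine after killing at 48 h. Infection confirmed by fecal examination in three-bird groups; compound given orally once in gelatin capsules at 10/20 (A1, B1), 30/50 (C1) or 15/30 (D1) mg/kg.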

[4] = system: swine whipworm (Trichuris suis); test: Test of anthelmintic effect in naturally infected pigs, E.P.G. on 7th day: swine whipworm (Test Examples A9, B9, C9, D9); format: in vivo; conditions: pig; for Change of E.P.G. 7th day: one administration
Procedure: as §1, §2, §3, §4, §5

[5] = system: swine Oesophagostomum (Oesophagostomum dentatum); test: Test of anthelmintic effect against swine Oesophagostomum in naturally infected pigs, E.P.G. on 7th day (Test Examples A8, B8, C8, D8); format: in vivo
Procedure: Six pigs infected with swine Oesophagostomum (naturally infected pigs) were employed by grouping them into groups each of two pigs.
as §2
(§6) Before administration and on the 7th day after administration, fecal matter testing was conducted to calculate the E.P.G., and the anthelmintic effect was judged by the changing of the E.P.G. to negative.

[6] = system: Liver fluke; Fasciola hepatica (F. hepatica); test: Test of anthelmintic effect against rat infected experimentally with liver fluke (Test Examples A11, B11, C11, D11); format: in vivo; conditions: for anthelmintic effect: rats, five administrations in a dose of 50 mg/Kg each
Excerpt: Twenty-eight (28) rats were employed in fourteen groups each of two rats, each rat being infected with 5 metacercariae of Liver fluke; Fasciola he^patica (F.. hepatica) and confirmed to have worm eggs on the 75th day after infection according to fecal matter testing.
Judgement of the effect was made by the presence or absence of the worm gees in the fecal matter on the 21st day after the last administration and by examination according to autopsis as to whether the worm bodies were dead or alive in the liver.
The same as that in Test Example All, but eight (8) rats were employed by grouping them into groups each of two rats, each rat being infected with 5 metacercariae of liver fluke and confirmed to have fluke eggs on the 75th day after infection according to fecal matter testing.
The compounds provided for the tests were Compound Nos. Bl, B8 and B19.
The same as that in Test Example All, but six (6) rats were employed by grouping them into groups each of two rats, each rat being infected with 5 metacercariae of Fasciola hepatica and confirmed to have worm eggs on the 75th day after infection according to fecal matter testing.
The compounds provided for the tests were Compound Nos. C2 and C6.
The same as that in Test Example All, but the compounds provided for tests were Compound Nos. D14, D15 and D16.

[7] = system: canine filaria; Dirofilaria immitis; test: Test of anthelmintic effect against canine filaria in naturally infected dogs, subcutaneous injection, microfilaria in blood and adult filaria at autopsy (Test Examples A10, B10, C10, D10); format: in vivo; conditions: for inhibition in vivo at 20 mg/kg: Dirofilaria immitis, sc, 240 h; for Effect on adult filaria: Number of worms killed/ Total parasite: 20 mg/kg
[8] = system: canine strongyloides (Strongyloides stercoralis); test: Anthelmintic test against canine strongyloides in naturally infected dogs, E.P.G. on 7th day (Test Examples A4, B4, C4, D4); format: in vivo
Procedure: Three dogs infected with canine strongyloides (naturally infected dogs) were employed by grouping them into a group of two and a group of one.
As control, only a gelatin capsule was administered orally to the one dog.
as §6
(§7) As control, only gelatin capsules were administered orally to the one dog.
as §7

[9] = system: Diphyllobothrium erinacei; test: Test of anthelmintic effect against Diphyllobothrium erinacei (tapeworm) in experimentally infected cats (Test Examples A5, B5, C5, D5)
[10] = pig, Ascaris suum, 30 mg/Kg oral in gelatin capsule
[11] = 30 mg/Kg oral in gelatin capsule
[12] = dog, 20 mg/Kg x 3, subcutaneous injection, read-out: Effect on adult filaria: Percent of worms killed
[13] = dogs, administration of 20 mg/Kg repeated three times, given as about 50% or more, read-out: anthelmintic effect against adult filaria
[14] = dog, 20 mg/Kg x 3, subcutaneous injection
[15] = dog, 20 mg/Kg x 3, subcutaneous injection, hydrochloride
[16] = dogs, administration of 20 mg/Kg repeated three times

## C=CCON(CC=C)C(=O)CCC [Compound C3]
[1]; 25 ppm in feed
  inhibition in vivo at 25 ppm: 80 to 90%
[1]; 50 ppm in feed
  inhibition in vivo at 50 ppm: 100%
[2]; [10]
  Change of E.P.G. 7th day: 0
[2]; pig, Ascaris suum, before 30 mg/Kg oral (baseline)
  Change of E.P.G. Before administration: 1,300 and 2,100
[2]
  anthelmintic effect: marked anthelmintic effect
[3]
  inhibition in vivo at 30 mg/kg: 80 to 90%
  inhibition in vivo at 50 mg/kg: 100%
[4]; [11]
  Change of E.P.G. 7th day: 0

## C=CCON(CC=C)C(=O)c1ccccc1 [Compound C6]
[5]; pig, Oesophagostomum dentatum, 20 mg/Kg, one administration
  Change of E.P.G. 7th day: 0
[5]; pigs, one administration of 20 mg/Kg
  anthelmintic effect: marked anthelmintic effect
[1]; 25 ppm in feed
  inhibition in vivo at 25 ppm: 100%
  Change of E.P.G. 21st day: 0
[1]; 50 ppm in feed
  inhibition in vivo at 50 ppm: 100%
  Change of E.P.G. 21st day: 0
[6]; rat, 50 mg/Kg x 5
  Condition of fluke body: dead
  Presence or absence of fluke egg in fecal matter On 21st day after the last administration: -
[6]
  anthelmintic effect: marked antihelmintic effect
[2]; [10]
  Change of E.P.G. 7th day: 0
[2]
  anthelmintic effect: marked anthelmintic effect
[3]
  inhibition in vivo at 30 mg/kg: 100%
  inhibition in vivo at 50 mg/kg: 100%
[4]; [11]
  Change of E.P.G. 7th day: 0
[4]; before 30 mg/Kg oral (baseline)
  Change of E.P.G. Before administration: 4,300 and 5,800

## C#CCNOCC.Cl [Compound D10, N-propargyl-O-ethylhydroxylamine hydrochloride]
[7]; [12]
  inhibition in vivo at 20 mg/kg: 54%
[7]; [13]
  inhibition in vivo at 20 mg/kg: ≥ 50%
[7]; [14]
  Number of microfilaria/20µl On 10th day after the administration: 0 /20µl
[7]; [15]
  Effect on adult filaria: Number of worms killed/ Total parasite: 18/33 and 20/28
[7]; [16]
  anthelmintic effect against microfilaria (mf): marked anthelmintic effect
[2]; pig, Ascaris suum, 20 mg/Kg
  Change of E.P.G. 7th day: 0
[3]
  inhibition in vivo at 15 mg/kg: 100%
  inhibition in vivo at 30 mg/kg: 100%
[4]; 20 mg/Kg
  Change of E.P.G. 7th day: 0

## C#CCNOC.Cl [Compound D16, N-propargyl-O-methylhydroxylamine hydrochloride]
[8]; dog, Strongyloides stercoralis, 10 mg/Kg, one administration
  Change of E.P.G. 7th day: 0
[8]; dog, Strongyloides stercoralis, before 10 mg/Kg (baseline), hydrochloride
  Change of E.P.G. Before administration: 2,300 and 1,800
[8]; dogs, one administration of 10 mg/Kg
  anthelmintic effect: marked anthelmintic effect
[1]; 25 ppm in feed
  inhibition in vivo at 25 ppm: 100%
[1]; 50 ppm in feed
  inhibition in vivo at 50 ppm: 100%
[7]; [12]
  inhibition in vivo at 20 mg/kg: 55%
[7]; [13]
  inhibition in vivo at 20 mg/kg: ≥ 50%
[7]; [14]
  Number of microfilaria/20µl On 10th day after the administration: 0 /20µl
[7]; [15]
  Effect on adult filaria: Number of worms killed/ Total parasite: 16/29 and 23/37
[7]; dog, before 20 mg/Kg x 3 subcutaneous injection (baseline), hydrochloride
  Number of microfilaria/20µl Before administration: 18 /20µl and 31 /20µl
[7]; [16]
  anthelmintic effect against microfilaria (mf): marked anthelmintic effect
[6]; rat, 50 mg/Kg x 5
  Condition of fluke bodies: dead
  Presence or absence of fluke egg in fecal matter On 21st day after the last administration: -
[6]
  anthelmintic effect: marked anthelmintic effect
[3]
  inhibition in vivo at 15 mg/kg: 100%
  inhibition in vivo at 30 mg/kg: 100%
[9]; cat, 50 mg/Kg x 5
  Number of worms remaining in enteron: 0
[9]; cats, 5 continuous administrations of 50 mg/Kg
  anthelmintic effect: marked anthelmintic effects
